Results published in PMC2754045 (Biochemistry, 2009).

Legend:
mTR-GCCG [1] = conditions: for Activity lower than that of the wild type enzyme: Sec to Cys mutant versus WT, pH 7.0
mTR-GCCG [2] = format: biochemical, mouse; conditions: mTR-GCCG versus mTR-GCUG

Row | SMILES | IC50 increase on mutation of Sec to Cys (mTR-GCCG [2]) | Activity lower than that of the wild type enzyme (mTR-GCCG [1]) | also measured
1 | O=C(O)CCCC[C@@H]1CCSS1 [Lipoic Acid, lipoic acid] | – | – | Km increase in the Cys2 mutant (mTR-GCCG [1]; versus full-length WT enzyme): 2.3 fold
2 | CC(=O)OC[C@H]1O[C@@H]([S-])[C@H](OC(C)=O)[C@@H](OC(C)=O)[C@@H]1OC(C)=O.CCP(CC)CC.[Au+] [auranofin] | 4 fold | – | –
3 | OC[C@H]1O[C@H]([S-])[C@H](O)[C@@H](O)[C@@H]1O.[Au+] [aurothioglucose] | 1.7 fold | – | –
4 | O=[Se]([O-])[O-].[Na+].[Na+] [selenite, sodium selenite] | – | ~ 2 fold | –
5 | N[C@@H](C[Se][Se]C[C@H](N)C(=O)O)C(=O)O [selenocystine] | – | 3.7 fold | –
